Measured values from patent US20230142547A1, “COMPOUNDS FOR TREATING OR PREVENTING A CORONAVIRIDAE INFECTION & METHODS AND USES FOR ASSESSING THE OCCURRENCE OF A CORONAVIRIDAE INFECTION” (ABIVAX, priority 2020, published 2023).
Read-outs that look alike come from different tables or passages of the source.

Assays:
SARS-CoV2 [1] = assay: Inhibition of SARS-CoV2 replication in MucilAir reconstituted human airway epithelium, viral genome by RT-qPCR; assay type: cell-based; settings: for effect on SARS-CoV2 replication (in words): daily treatment, increasing concentrations
SARS-CoV-2 = assay type: cell-based; settings: 48 hours post-infection, FIG. 2
SARS-CoV2 [2] = assay: ABX464 in combination with Remdesivir: SARS-CoV2 viral RNA in HAE by RT-qPCR; assay type: cell-based; settings: FIG. 3B
[3] = tested on: human reconstituted airway epithelial model of bronchial origin; assay type: cell-based; settings: infected HAE, 48h post-infection
[4] = Tissue distribution of radioactivity in rat after single oral [14C]-ABX464 (whole-body autoradiography, liquid scintillation counting); assay type: in vivo; settings: for concentration of radioactivity, Aortic wall / concentration of radioactivity, Lung / concentration of radioactivity, Myocardium / concentration of radioactivity, Nasal mucosa / concentration of radioactivity, Oesophageal wall / concentration of radioactivity, Tongue / concentration of radioactivity, Blood / concentration of radioactivity, Plasma: male albino rats, single oral 20 mg/kg; for concentration of radioactivity, Blood / concentration of radioactivity, Plasma: liquid scintillation counting
Description: (§1) This study was conducted in order to determine the tissue distribution and rates and routes of excretion of radioactivity in the rat following a single oral administration of [^14C]-ABX464. Analysis was performed using liquid scintillation counting (plasma and excreta) and quantitative whole-body autoradiography.
(§2) All animals received a single oral administration of [^14C]-ABX464 by oral gavage, at a nominal dose level of 20 mg/kg body weight and a dose volume of approximately 5 mL/kg. The target radioactive dose administered was ca 8 MBq/kg body weight.
Radioactivity in Blood and Plasma Whilst under terminal anaesthesia, but before freezing, up to 2 mL of blood was obtained from all animals by cardiac puncture and transferred to tubes pre-coated with K2-EDTA. The residual sample was centrifuged in order to obtain plasma. The radioactivity concentration was measured in blood and plasma by liquid scintillation counting.
For each animal, the legs, tail and whiskers were trimmed off and the frozen carcass set in a block of aqueous 2% (w/v) carboxymethylcellulose. The block was mounted onto the stage of a Leica CM3600 cryomicrotome maintained at ca −20° C. (Leica Microsystems (UK) Ltd) and sagittal sections (nominal thickness 30 μm) were obtained through the carcass to include the following tissues: exorbital lachrymal gland, intra-orbital lachrymal gland, Harderian gland, adrenal gland, thyroid, brain and spinal cord. The sections, mounted on Filmolux 610 Tape (Neschen UK), were freeze-dried in a GVD03 bench-top freeze-drier (Girovac Ltd) and placed in contact with FUJI imaging plates (type BAS-MS, Raytek Scientific Ltd). [^14C]-Blood standards of appropriate activity (also sectioned at a nominal thickness of 30 μm) were placed in contact with all imaging plates.
After exposure in a copper-lined, lead exposure box for 7 days, the imaging plates were processed using a FUJI FLA-5000 radiography system (Raytek Scientific Ltd). Electronic images were analysed using a PC-based image analysis package (Seescan 2 software, LabLogic Ltd). The carbon-14 standards included with each autoradiogram were used to construct calibration lines over a range of radioactivity concentrations.
Wherever possible, the maximum area within a single autoradiogram was defined for each tissue for measurement.
(§3) A suitable scintillation counter was used. Radioassays were performed at least in duplicate. Efficiency correlation curves were prepared and routinely checked by the use of [14-C]toluene and Ultima Gold™ quenched standards (PerkinElmer LAS (UK) Ltd).
Concentration of radioactivity in sample=C (dpm/g)
Specific radioactivity of test substance=S (MBq/mg)
Concentration of radioactivity in sample=(C/60000)/S (μg equiv/g)

[5] = Rates and routes of excretion of radioactivity in rat after single oral [14C]-ABX464; assay type: in vivo
Description: as §1, §2, §3

[6] = Severe acute respiratory syndrome coronavirus 2, RTqPCR, mean of duplicates, read-out: % inhibition of viral infection, MEAN
[7] = Severe acute respiratory syndrome coronavirus 2, RTqPCR, replicate N1, read-out: % inhibition of viral infection, N1
[8] = Severe acute respiratory syndrome coronavirus 2, RTqPCR, replicate N2, read-out: % inhibition of viral infection, N2

## O=C(O)[C@H]1O[C@@H](N(c2ccc(OC(F)(F)F)cc2)c2ccc3cccc(Cl)c3n2)[C@H](O)[C@@H](O)[C@@H]1O [ABX464-N-Gluc]
SARS-CoV2 [1]; [6]
  inhibition at 0.1 µM: 0%
  inhibition at 1 µM: 29%
  inhibition at 10 µM: 88%
SARS-CoV2 [1]; [7]
  inhibition at 0.1 µM: 0%
  inhibition at 1 µM: 20%
  inhibition at 10 µM: 99.9%
SARS-CoV2 [1]; [8]
  inhibition at 0.1 µM: 0%
  inhibition at 1 µM: 38%
  inhibition at 10 µM: 76%
SARS-CoV2 [1]
  effect on SARS-CoV2 replication (in words): dose-dependent effect
SARS-CoV-2
  TCID50 (in words): a decrease is also observed

## CCC(CC)COC(=O)[C@H](C)N[P@](=O)(OC[C@H]1O[C@@](C#N)(c2ccc3c(N)ncnn23)[C@H](O)[C@@H]1O)Oc1ccccc1 [Remdesivir, reference compound]
SARS-CoV2 [1]; Severe acute respiratory syndrome coronavirus 2, read-out: % inhibition of viral infection, MEAN
  inhibition at 5 µM: 100%
SARS-CoV2 [1]; Severe acute respiratory syndrome coronavirus 2, read-out: % inhibition of viral infection, N1
  inhibition at 5 µM: 99.9%
SARS-CoV2 [1]; Severe acute respiratory syndrome coronavirus 2, read-out: % inhibition of viral infection, N2
  inhibition at 5 µM: 100%
SARS-CoV2 [2]; REM alone (5 μM), values from another experiment
  reduction of viral RNA: 4 log

## N#Cc1ccc(Nc2ccc3ccccc3n2)nc1 [ABX300, reference compound]
SARS-CoV2 [1]; all tested concentrations (10 μM, 1 μM and 0.1 μM)
  % inhibition of viral replication: 0%
SARS-CoV2 [1]
  effect on SARS-CoV2 replication (in words): fails to show a marked effect on viral replication
[3]
  epithelium integrity measured by TEER (in words): reduction in epithelium integrity
SARS-CoV-2
  TCID50 (in words): very modest effect on the TCID50

## FC(F)(F)Oc1ccc(Nc2ccc3cccc(Cl)c3n2)cc1 [ABX464, 8-Chloro-N-(4-(trifluoromethoxy)phenyl)quinolin-2-amine]
[4]; 1 hour
  concentration of radioactivity, Aortic wall: 0.337 μg equivalents per gram
  concentration of radioactivity, Lung: 1.19 μg equivalents per gram
  concentration of radioactivity, Myocardium: 1.28 μg equivalents per gram
  concentration of radioactivity, Nasal mucosa: 0.252 μg equivalents per gram
  concentration of radioactivity, Oesophageal wall: 1.72 μg equivalents per gram
  concentration of radioactivity, Tongue: 0.495 μg equivalents per gram
  concentration of radioactivity, Blood: 0.398 μg equivalents per gram
  concentration of radioactivity, Plasma: 0.461 μg equivalents per gram
[4]; 4 hours
  concentration of radioactivity, Aortic wall: 1.59 μg equivalents per gram
  concentration of radioactivity, Lung: 1.89 μg equivalents per gram
  concentration of radioactivity, Myocardium: 1.45 μg equivalents per gram
  concentration of radioactivity, Nasal mucosa: 0.708 μg equivalents per gram
  concentration of radioactivity, Oesophageal wall: 2.72 μg equivalents per gram
  concentration of radioactivity, Tongue: 1.92 μg equivalents per gram
  concentration of radioactivity, Blood: 0.978 μg equivalents per gram
  concentration of radioactivity, Plasma: 1.25 μg equivalents per gram
[4]; 8 hours
  concentration of radioactivity, Aortic wall: 1.74 μg equivalents per gram
  concentration of radioactivity, Lung: 1.45 μg equivalents per gram
  concentration of radioactivity, Myocardium: 0.677 μg equivalents per gram
  concentration of radioactivity, Nasal mucosa: 0.585 μg equivalents per gram
  concentration of radioactivity, Oesophageal wall: 0.795 μg equivalents per gram
  concentration of radioactivity, Tongue: 0.689 μg equivalents per gram
  concentration of radioactivity, Blood: 0.807 μg equivalents per gram
  concentration of radioactivity, Plasma: 1.18 μg equivalents per gram
[4]; 24 hours
  concentration of radioactivity, Aortic wall: 0.129 μg equivalents per gram
  concentration of radioactivity, Lung: 0.457 μg equivalents per gram
  concentration of radioactivity, Myocardium: 0.143 μg equivalents per gram
  concentration of radioactivity, Nasal mucosa: 0.084 μg equivalents per gram
  concentration of radioactivity, Oesophageal wall: 0.265 μg equivalents per gram
  concentration of radioactivity, Tongue: 0.122 μg equivalents per gram
  concentration of radioactivity, Blood: 0.229 μg equivalents per gram
  concentration of radioactivity, Plasma: 0.203 μg equivalents per gram
[4]; over the study duration, rat, oral 20 mg/kg
  increase of affinity of related radioactivity to bind to the cellular partition of blood: 10 fold
[4]; rat, oral 20 mg/kg
  binding of related material to melanin: no evidence for the binding
  radioactivity in the central nervous system / blood-brain barrier: drug related material crossed the blood-brain barrier, but was subsequently eliminated
  systemic and tissue bioavailability by the oral route (in words): excellent systemic and tissue bioavailability
[5]; final sampling time of 168 hours, excretion balance phase
  radioactivity remaining in carcasses: less than 0.5 % of the administered dose
[5]; rat, oral 20 mg/kg
  elimination of radioactivity via faeces: 88%
  radioactivity excreted via the renal system: less than 5%
  total mean recovery of radioactivity: 93%±1.8
[5]; rat, oral 20 mg/kg, inferred from excretion
  orally administered dose absorbed: at least 5%
SARS-CoV2 [1]; [6]
  inhibition at 0.1 µM: 32.5%
  inhibition at 1 µM: 93.2%
SARS-CoV2 [1]; [7]
  inhibition at 0.1 µM: 26.4%
  inhibition at 1 µM: 88.8%
SARS-CoV2 [1]; [8]
  inhibition at 0.1 µM: 38.5%
  inhibition at 1 µM: 97.7%
SARS-CoV2 [1]; Severe acute respiratory syndrome coronavirus 2, 5 μM, RTqPCR, mean of duplicates, read-out: % inhibition of viral infection, MEAN
  inhibition at 5 µM: 95.5%
SARS-CoV2 [1]; Severe acute respiratory syndrome coronavirus 2, 5 μM, RTqPCR, replicate N1, read-out: % inhibition of viral infection, N1
  inhibition at 5 µM: 99.4%
SARS-CoV2 [1]; Severe acute respiratory syndrome coronavirus 2, 5 μM, RTqPCR, replicate N2, read-out: % inhibition of viral infection, N2
  inhibition at 5 µM: 91.7%
SARS-CoV2 [1]
  effect on SARS-CoV2 replication (in words): dose-dependent inhibition of SARS-CoV2 replication
[3]
  epithelium integrity measured by TEER (in words): protective effect on the integrity of bronchial epithelium
SARS-CoV-2
  TCID50 (in words): dose-dependent decrease of the TCID50
SARS-CoV2 [2]; 1 μM of ABX464 alone, HAE, RT-qPCR
  reduction of viral RNA: 1.5 log
